These results are taken from patent US12351581B2, “Compounds for FGFR inhibition” (Cogent Biosciences, Inc., priority 2023, dated 2025).

The target in one assay is T1, FGFR2 N549H (Homo sapiens, UniProt P21802, N549H).
T1 construct: biochemical assays using purified intracellular domains of the respective isoforms; purchased Carna Bioscience 08-532
In words: FGFR mutant enzyme assay (HTRF KinEASE-TK). It is filed as biochemical. Conditions: ATP 0.9 uM. Put shortly:
(§1)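 Purified intracellular kinase domains, enzyme pre-incubated 30 min with compound (11-point 1:3 dilutions, typically 10,000-0.17 nM), then ATP plus 0.5 uM TK-peptide, 60 min at room temperature in HEPES pH7.5 with Mg2+/Mn2+. HTRF 665/615 ratio converted to percent of control; IC50 from four-parameter logistic fit.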
(In general: In TR-FRET formats the signal depends on donor and acceptor labels being close together.)

The target in a further assay is T2, FGFR2 V564F (Homo sapiens, UniProt P21802, V564F).
T2 construct: biochemical assays using purified intracellular domains of the respective isoforms; purchased SignalChem Biotech F05-12FG
Put plainly: FGFR mutant enzyme assay (HTRF KinEASE-TK). Format: biochemical. Conditions: ATP 1.5 uM. Put shortly: as §1

A further assay deals with T3, FGFR2 V564I (Homo sapiens, UniProt P21802, V564I).
T3 construct: biochemical assays using purified intracellular domains of the respective isoforms; purchased Carna Bioscience 08-546
In words: FGFR mutant enzyme assay (HTRF KinEASE-TK). It is filed as biochemical. Conditions: ATP 0.4 uM. An outline of the steps: as §1

In the next assay the target is T4, FGFR2 (Homo sapiens, UniProt P21802).
T4 construct: biochemical assays using purified intracellular domains of the respective isoforms; purchased Carna Bioscience 08-134
Put plainly: FGFR wild type enzyme assay (HTRF KinEASE-TK). Format: biochemical. The conditions noted are these: ATP 2 uM. An outline of the steps: as §1

The next assay addresses FGFR2-WT (Homo sapiens, UniProt P21802). In words: Phosphorylated FGFR2-WT (pFGFR2-WT) cell assay, KATOIII cells. Format: cell-based. The conditions noted are these: 1 hour incubation, phospho FGFR2 HTRF. An outline of the steps:
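KATOIII cells treated 1 h at 37 °C with threefold compound dilutions (10 μM to 0.5 nM). Lysate phospho-FGFR2 (Tyr653/654) read by HTRF.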

Setting [1] is: compound table after the examples, read-out: Enz FGFR2.

Where two headings read alike, the source gives them in different places.

T2 sequence (P21802 399-821 V564F limits assumed): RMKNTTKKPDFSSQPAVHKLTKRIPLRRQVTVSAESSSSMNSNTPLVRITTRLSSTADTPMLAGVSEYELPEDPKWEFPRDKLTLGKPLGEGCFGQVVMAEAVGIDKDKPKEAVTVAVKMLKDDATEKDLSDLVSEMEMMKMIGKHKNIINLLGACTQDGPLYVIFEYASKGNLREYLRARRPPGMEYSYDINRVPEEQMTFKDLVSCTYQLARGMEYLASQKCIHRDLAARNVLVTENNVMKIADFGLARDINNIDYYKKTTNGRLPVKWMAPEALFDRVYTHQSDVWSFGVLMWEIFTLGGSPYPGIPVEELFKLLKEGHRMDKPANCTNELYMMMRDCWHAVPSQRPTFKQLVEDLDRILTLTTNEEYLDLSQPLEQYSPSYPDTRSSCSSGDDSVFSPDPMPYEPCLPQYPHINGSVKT
Sequence of FGFR2-WT (P21802 430-767 limits assumed): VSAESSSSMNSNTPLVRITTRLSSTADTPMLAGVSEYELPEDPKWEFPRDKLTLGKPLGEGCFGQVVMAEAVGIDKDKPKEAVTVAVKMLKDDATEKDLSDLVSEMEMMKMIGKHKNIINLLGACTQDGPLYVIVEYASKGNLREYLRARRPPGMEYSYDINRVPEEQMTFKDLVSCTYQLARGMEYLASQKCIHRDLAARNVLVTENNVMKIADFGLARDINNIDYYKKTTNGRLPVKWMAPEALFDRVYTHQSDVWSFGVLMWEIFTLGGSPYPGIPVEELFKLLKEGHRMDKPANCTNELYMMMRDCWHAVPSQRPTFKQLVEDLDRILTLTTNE
T1 sequence (P21802 399-821 N549H limits assumed): as the sequence (P21802 399-821 V564F limits assumed) above, with N151H, F166V counted along it
T4 sequence (P21802 399-821 limits assumed): as the sequence (P21802 399-821 V564F limits assumed) above, with F166V counted along it
T3 sequence (P21802 399-821 V564I limits assumed): as the sequence (P21802 399-821 V564F limits assumed) above, with F166I counted along it

With `Cc1c(-c2cc(O[C@H](C)c3ccc(F)cn3)c3c(C#N)cnn3c2)cnn1C1CCN(C(=O)C2(N)CCC2)CC1` [Compound 43, (R)-6-(1-(1-(1-aminocyclobutane-1-carbonyl)piperidin-4-yl)-5-methyl-1H-pyrazol-4-yl)-4-(1-(5-fluoropyridin-2-yl)ethoxy)pyrazolo[1,5-a]pyridine-3-carbonitrile], the IC50 on FGFR2 N549H came out at 1 nM; at FGFR2 V564F, 3 nM; against FGFR2 V564I, 3 nM; on FGFR2 (Table 3, read-out: FGFR2 Enz), 1 nM; at FGFR2 (setting [1]), 1 nM; against FGFR2-WT it was 9 nM.
For `Cc1c(-c2cc(O[C@H](C)c3ccc(F)cn3)c3c(C#N)cnn3c2)cnn1C1CCN(C(=O)[C@@H](N)C(C)C)CC1` [Compound 44, 6-(1-(1-(L-valyl)piperidin-4-yl)-5-methyl-1H-pyrazol-4-yl)-4-((R)-1-(5-fluoropyridin-2-yl)ethoxy)pyrazolo[1,5-a]pyridine-3-carbonitrile], the IC50 amounted to 0.4 nM on FGFR2 N549H; 1 nM at FGFR2 V564F; 1.5 nM at FGFR2 V564I; 0.5 nM on FGFR2 (Table 3, read-out: FGFR2 Enz); 0.5 nM on FGFR2 (setting [1]); 8 nM against FGFR2-WT.
Take `Cc1c(-c2cc(O[C@@H](C)c3ccc(F)cn3)c3c(C#N)cnn3c2)cnn1[C@H]1CC[C@H](O)CC1` [Compound 45, 4-((S)-1-(5-fluoropyridin-2-yl)ethoxy)-6-(1-((1r,4S)-4-hydroxycyclohexyl)-5-methyl-1H-pyrazol-4-yl)pyrazolo[1,5-a]pyridine-3-carbonitrile]: the IC50 on FGFR2 N549H was determined as 7 nM; against FGFR2 V564F, 13 nM; at FGFR2 V564I, 23 nM; at FGFR2 (Table 3, read-out: FGFR2 Enz) it was 6.5 nM; on FGFR2 (setting [1]), 6.5 nM; against FGFR2-WT, 60 nM.
As to `Cc1c(-c2cc(O[C@H](C)c3ccc(F)cn3)c3c(C#N)cnn3c2)cnn1[C@H]1CC[C@@H](O)CC1` [Compound 46, 4-((R)-1-(5-fluoropyridin-2-yl)ethoxy)-6-(1-((1s,4S)-4-hydroxycyclohexyl)-5-methyl-1H-pyrazol-4-yl)pyrazolo[1,5-a]pyridine-3-carbonitrile], the IC50 turned out to be 0.3 nM against FGFR2 N549H; 1 nM against FGFR2 V564F; 1 nM against FGFR2 V564I; 0.3 nM at FGFR2 (Table 3, read-out: FGFR2 Enz); 0.3 nM at FGFR2 (setting [1]); 3 nM on FGFR2-WT.
As for `C[C@@H](Oc1cc(-c2cnn(C3CCN(C#N)CC3)c2N)cn2ncc(C#N)c12)c1ccc(F)cn1` [Compound 47, (R)-6-(5-amino-1-(1-cyanopiperidin-4-yl)-1H-pyrazol-4-yl)-4-(1-(5-fluoropyridin-2-yl)ethoxy)pyrazolo[1,5-a]pyridine-3-carbonitrile], the IC50 turned out to be 0.4 nM against FGFR2 N549H; 1 nM against FGFR2 V564F; 1 nM against FGFR2 V564I; 0.3 nM on FGFR2 (Table 3, read-out: FGFR2 Enz); 0.3 nM at FGFR2 (setting [1]); 4 nM against FGFR2-WT.
Take `Cc1c(-c2cc(O[C@H](C)c3ccc(F)cn3)c3c(C#N)cnn3c2)cnn1[C@H]1CCCN(C(=O)[C@@H](C)O)C1` [Compound 48, 4-((R)-1-(5-fluoropyridin-2-yl)ethoxy)-6-(1-((S)-1-((R)-2-hydroxypropanoyl)piperidin-3-yl)-5-methyl-1H-pyrazol-4-yl)pyrazolo[1,5-a]pyridine-3-carbonitrile]: the IC50 was 0.4 nM on FGFR2 N549H; 1 nM on FGFR2 V564F; 1 nM against FGFR2 V564I; 0.4 nM at FGFR2 (Table 3, read-out: FGFR2 Enz); 0.4 nM on FGFR2 (setting [1]); 3 nM at FGFR2-WT.
Turning to `Cc1c(-c2cc(O[C@H](C)c3ccc(F)cn3)c3c(C#N)cnn3c2)cnn1[C@@H]1CCCN(C(=O)[C@H](C)O)C1` [Compound 49, 4-((R)-1-(5-fluoropyridin-2-yl)ethoxy)-6-(1-((R)-1-((S)-2-hydroxypropanoyl)piperidin-3-yl)-5-methyl-1H-pyrazol-4-yl)pyrazolo[1,5-a]pyridine-3-carbonitrile], the IC50 against FGFR2 N549H is 3 nM; against FGFR2 V564F, 8 nM; against FGFR2 V564I, 10 nM; at FGFR2 (Table 3, read-out: FGFR2 Enz) it was 2.6 nM; at FGFR2 (setting [1]), 2.6 nM; against FGFR2-WT it was 15 nM.
